In the supplement of paper PMC4862054:

How the values were obtained:
Settings in all cases: incubation time: 72 h
HCC1937 [1] = experiment: drug sensitivity score (DSS), CellTox Green (DSS (AUC-based score)); higher = stronger drug effect (viability inhibition or cytotoxicity); extreme values may be limits of the assay
Method in brief: (§1)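 The area under the fitted dose-response curve was used to calculate the drug sensitivity score. Cells from breast cancer lines were incubated for 72 h in 384-well plates with compound at 5 concentrations spaced 10-fold over a 10,000-fold range specific to each compound. Plates were read for CellTox Green and then CellTiter-Glo, and normalised to 0.1 % DMSO and a positive kill control.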

MDA-MB-231 = experiment: as above
Method in brief: as §1

SK-BR-3 = experiment: normalised response (% of control), CellTiter-Glo; higher = more viable cells (100 = DMSO, 0 = benzethonium chloride kill control)
Procedure: (§2)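 DSRT, 72 h incubation, CellTox Green / CellTiter-Glo readout. Signal is normalised to DMSO and benzethonium chloride controls. Value is the normalised response at the highest dose.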

HCC1937 [2] = experiment: as above
Procedure: as §2

BT-474 = experiment: as above
Procedure: as §2

CAL-51 = experiment: as above
Procedure: as §2

MDA-MB-468 = experiment: as above
Procedure: as §2

Hs578T [3] = experiment: as above
Procedure: as §2

Hs578T [4] = experiment: drug sensitivity score (DSS), CellTox Green (DSS (AUC-based score)); higher = stronger drug effect (viability inhibition or cytotoxicity); extreme values may be limits of the assay
Method in brief: as §1

SMILES | drug sensitivity score (HCC1937 [1]) | drug sensitivity score (MDA-MB-231) | normalised response (SK-BR-3) | normalised response (HCC1937 [2]) | normalised response (BT-474) | normalised response (CAL-51) | normalised response (MDA-MB-468) | normalised response (Hs578T [3]) | drug sensitivity score (Hs578T [4])
CN1CCC(COc2cnc(-c3cccc(Cn4nc(-c5cccc(C#N)c5)ccc4=O)c3)nc2)CC1 | 0 | 0 |  |  |  |  |  |  | 
CN1CCC(COc2cnc(-c3cccc(Cn4nc(-c5cccc(C#N)c5)ccc4=O)c3)nc2)CC1 (1000 nM) |  |  | 81% | 84% | 93.3% | 110% | 90.3% | 95.2% | 
CN(C)C/C=C/C(=O)Nc1cc2c(Nc3ccc(F)c(Cl)c3)ncnc2cc1O[C@H]1CCOC1 [Afatinib] | 1.72 | 0 |  |  |  |  |  |  | 1.68
CN(C)C/C=C/C(=O)Nc1cc2c(Nc3ccc(F)c(Cl)c3)ncnc2cc1O[C@H]1CCOC1 [Afatinib] (1000 nM) |  |  | 24.8% | 89.8% | 80.2% | 96.4% | 66.8% | 94.5% | 
COc1cc(Nc2ncc3c(n2)-c2ccc(Cl)cc2C(c2c(F)cccc2OC)=NC3)ccc1C(=O)O [Alisertib] | 1.76 | 8.87 |  |  |  |  |  |  | 0
CN1CC[C@H](c2c(O)cc(O)c3c(=O)cc(-c4ccccc4Cl)oc23)[C@H](O)C1 [Alvocidib] | 0 | 16.5 |  |  |  |  |  |  | 8.33
CN1CC[C@H](c2c(O)cc(O)c3c(=O)cc(-c4ccccc4Cl)oc23)[C@H](O)C1 [Alvocidib] (10000 nM) |  |  | 1.32% | 26.2% | 21.7% | 15.7% | 5.01% | 7.68% | 
Nc1nc(Cl)nc2c1ncn2[C@H]1C[C@H](O)[C@@H](CO)O1 [Cladribine] | 0 | 0.0524 |  |  |  |  |  |  | 0
Nc1nc(Cl)nc2c1ncn2[C@H]1C[C@H](O)[C@@H](CO)O1 [Cladribine] (1000 nM) |  |  | 74.1% | 82.8% | 74.8% | 124% | 87.9% | 102% | 
Nc1ccn([C@@H]2O[C@H](CO)[C@@H](O)[C@@H]2O)c(=O)n1 [Cytarabine] | 0 | 0 |  |  |  |  |  |  | 0
Nc1ccn([C@@H]2O[C@H](CO)[C@@H](O)[C@@H]2O)c(=O)n1 [Cytarabine] (10000 nM) |  |  | 43% | 76.5% | 87.2% | 25.4% | 62.9% | 77.9% | 
Cc1c2oc3c(C)ccc(C(=O)N[C@@H]4C(=O)N[C@H](C(C)C)C(=O)N5CCC[C@H]5C(=O)N(C)CC(=O)N(C)[C@@H](C(C)C)C(=O)O[C@@H]4C)c3nc-2c(C(=O)N[C@@H]2C(=O)N[C@H](C(C)C)C(=O)N3CCC[C@H]3C(=O)N(C)CC(=O)N(C)[C@@H](C(C)C)C(=O)O[C@@H]2C)c(N)c1=O [Dactinomycin] | 0 | 20.5 |  |  |  |  |  |  | 12.5
Cc1c2oc3c(C)ccc(C(=O)N[C@@H]4C(=O)N[C@H](C(C)C)C(=O)N5CCC[C@H]5C(=O)N(C)CC(=O)N(C)[C@@H](C(C)C)C(=O)O[C@@H]4C)c3nc-2c(C(=O)N[C@@H]2C(=O)N[C@H](C(C)C)C(=O)N3CCC[C@H]3C(=O)N(C)CC(=O)N(C)[C@@H](C(C)C)C(=O)O[C@@H]2C)c(N)c1=O [Dactinomycin] (1000 nM) |  |  | 1.39% | 25.2% | 12.8% | 9.31% | 4.19% | 3.61% | 
COc1cccc2c1C(=O)c1c(O)c3c(c(O)c1C2=O)C[C@@](O)(C(=O)CO)C[C@@H]3O[C@H]1C[C@H](N)[C@H](O)[C@H](C)O1 [Doxorubicin] | 0 | 0 |  |  |  |  |  |  | 0
COc1cccc2c1C(=O)c1c(O)c3c(c(O)c1C2=O)C[C@@](O)(C(=O)CO)C[C@@H]3O[C@H]1C[C@H](N)[C@H](O)[C@H](C)O1 [Doxorubicin] (1000 nM) |  |  | 8.83% | 51.4% | 22.1% | 23.7% | 7.26% | 45.6% | 
Cc1ccc(F)c(NC(=O)Nc2ccc(-c3cccc4[nH]nc(N)c34)cc2)c1 [Linifanib] | 0 | 0 |  |  |  |  |  |  | 0
Cc1ccc(F)c(NC(=O)Nc2ccc(-c3cccc4[nH]nc(N)c34)cc2)c1 [Linifanib] (1000 nM) |  |  | 108% | 103% | 101% | 91.6% | 108% | 101% | 
CC(=O)O[C@]1(C(C)=O)CC[C@H]2[C@@H]3C=C(C)C4=CC(=O)CC[C@]4(C)[C@H]3CC[C@@]21C [Megestrol acetate] | 0 | 0 |  |  |  |  |  |  | 1.68
S=c1[nH]cnc2nc[nH]c12 [Mercaptopurine] | 0 | 0 |  |  |  |  |  |  | 0

SMILES | drug sensitivity score (HCC1937 [1]) | drug sensitivity score (MDA-MB-231) | normalised response (SK-BR-3) | normalised response (HCC1937 [2]) | normalised response (BT-474) | normalised response (CAL-51) | normalised response (MDA-MB-468) | normalised response (Hs578T [3]) | drug sensitivity score (Hs578T [4])
S=c1[nH]cnc2nc[nH]c12 [Mercaptopurine] (10000 nM) |  |  | 85.8% | 31.8% | 31.6% | 80.5% | 96.8% | 47.3% | 
Clc1ccc(C(c2ccccc2Cl)C(Cl)Cl)cc1 (centres undefined) [Mitotane] | 1.4 |  |  |  |  |  |  |  | 0
Clc1ccc(C(c2ccccc2Cl)C(Cl)Cl)cc1 (centres undefined) [Mitotane] (10000 nM) |  |  | 98.7% | 94.9% | 88.2% | 64.2% | 96.2% | 102% | 
CCN1CCN(c2ccc(Nc3cc(N(C)C(=O)Nc4c(Cl)c(OC)cc(OC)c4Cl)ncn3)cc2)CC1 [NVP-BGJ398] | 0 | 2.84 |  |  |  |  |  |  | 0
COc1cccc2cc(-c3nc([C@H]4CC[C@H](C(=O)O)CC4)n4ncnc(N)c34)[nH]c12 [OSI-027] | 0 | 0 |  |  |  |  |  |  | 0
COc1cccc2cc(-c3nc([C@H]4CC[C@H](C(=O)O)CC4)n4ncnc(N)c34)[nH]c12 [OSI-027] (10000 nM) |  |  | 22.9% | 47.6% | 51.8% | 38% | 33.4% | 33.4% | 
OC[C@H]1O[C@@H](n2cnc3c2N=CNC[C@H]3O)C[C@@H]1O [Pentostatin] | 0 | 0 |  |  |  |  |  |  | 0
OC[C@H]1O[C@@H](n2cnc3c2N=CNC[C@H]3O)C[C@@H]1O [Pentostatin] (10000 nM) |  |  | 104% | 98.9% | 88.9% | 90.2% | 103% | 98% | 
N#CC[C@H](C1CCCC1)n1cc(-c2ncnc3[nH]ccc23)cn1 [Ruxolitinib] |  | 0 |  |  |  |  |  |  | 0
N#CC[C@H](C1CCCC1)n1cc(-c2ncnc3[nH]ccc23)cn1 [Ruxolitinib] (10000 nM) |  |  | 91.5% | 96.9% | 81.8% | 88.9% | 88.7% | 102% | 
C=CC[C@@H]1/C=C(\C)C[C@H](C)C[C@H](OC)[C@H]2O[C@@](O)(C(=O)C(=O)N3CCCC[C@H]3C(=O)O[C@H](/C(C)=C/[C@@H]3CC[C@@H](O)[C@H](OC)C3)[C@H](C)[C@@H](O)CC1=O)[C@H](C)C[C@@H]2OC [Tacrolimus] | 0 | 2.92 |  |  |  |  |  |  | 0
C=CC[C@@H]1/C=C(\C)C[C@H](C)C[C@H](OC)[C@H]2O[C@@](O)(C(=O)C(=O)N3CCCC[C@H]3C(=O)O[C@H](/C(C)=C/[C@@H]3CC[C@@H](O)[C@H](OC)C3)[C@H](C)[C@@H](O)CC1=O)[C@H](C)C[C@@H]2OC [Tacrolimus] (10000 nM) |  |  | 89.3% | 94.3% | 88.5% | 104% | 85.4% | 94.5% | 
C=CCNC1=C2C[C@@H](C)C[C@H](OC)[C@H](O)[C@@H](C)/C=C(\C)[C@H](OC(N)=O)[C@@H](OC)/C=C\C=C(/C)C(=O)NC(=CC1=O)C2=O [Tanespimycin] (10000 nM) |  |  | 37.1% | 34% | 22.3% | 14.9% | 25.5% | 34.2% | 
CO[C@H]1C[C@@H]2CC[C@@H](C)[C@@](O)(O2)C(=O)C(=O)N2CCCC[C@H]2C(=O)O[C@H]([C@H](C)C[C@@H]2CC[C@@H](OC(=O)C(C)(CO)CO)[C@H](OC)C2)CC(=O)[C@H](C)/C=C(\C)[C@@H](O)[C@@H](OC)C(=O)[C@H](C)C[C@H](C)/C=C/C=C/C=C/1C [Temsirolimus] (100 nM) |  |  | 53% | 66.8% | 84.3% | 61% | 56.9% | 67.1% | 
O=C(c1ccc(C(=O)N2CCC(N3CCCC3)CC2)c(Nc2ccccc2)c1)N1CCC(N2CCCC2)CC1 [UNC1215] | 0 | 0 |  |  |  |  |  |  | 
C[C@]1(c2nc3c(C(N)=O)cccc3[nH]2)CCCN1 [Veliparib] (10000 nM) |  |  | 90.9% | 93.6% | 82.1% | 96.1% | 75.5% | 98.9% | 
CC[C@]1(O)C[C@@H]2CN(CCc3c([nH]c4ccccc34)[C@@](C(=O)OC)(c3cc4c(cc3OC)N(C)[C@H]3[C@@](O)(C(=O)OC)[C@H](OC(C)=O)[C@]5(CC)C=CCN6CC[C@]43[C@@H]65)C2)C1 [Vinblastine] (1000 nM) |  |  | 17.6% | 69.3% | 46.8% | 23.9% | 33.9% | 15.3% | 
CS(=O)(=O)c1ccc(C(=O)Nc2ccc(Cl)c(-c3ccccn3)c2)c(Cl)c1 [Vismodegib] (10000 nM) |  |  | 87.3% | 90% | 90.4% | 97.8% | 97.2% | 99.5% | 
